“And” between values parts separate entries of the source, which are not always exact repeats. Identical values can stand only once.
Experiments:
[1] = test system: PC-3 cells; experiment: Intracellular ROS assay (DCFH-DA, flow cytometry); type: cell-based, human; details: 10 μM, 24 h; negative control MFI 19.8
Procedure: Apoptosis is an important target for antitumor therapy. To explore the antitumor mechanism of compound 8q, cell apoptosis was detected using flow cytometry. […] Moreover, reactive oxygen species (ROS) play a significant role in cell growth, differentiation and apoptosis. Excessive ROS can cause oxidative damage and lead to cell apoptosis. […]
a wound healing assay was performed using the method we previously reported1. In short, PC-3 cells were seeded in a six-well plate at a density of 10 × 105 and incubated at a constant temperature of 37 ℃ and 5% CO2 for 24 h. Then the pipette tip was used to create a uniform wound on the surface of cells. Subsequently, after cleaning twice with PBS, the scratch healing of the 8q treatment group and the positive drug treatment […]
was used to measure and quantify cell migration. […]
PC-3 cells were seeded in a six-well plate at a density of 3 × 105, and cultured at 37 ℃ and 5% CO2 for 24 h before adding 10 μM. […] After completion, the cells were immediately detected on the Flow Cytometry (Solarbio, Beijing, China). […]
at 37 ° C for 20 min. Subsequently, the staining solution was wash off with basic culture medium and detected the fluorescence intensity using the flow cytometer. The data was analyzed and obtained through Flow Jo and Prism 7.04 software. […]
(§1) The distribution of cycles was analyzed by Flow Jo and Prism 7.04 software. […]

[2] = test system: PC-3 cells; experiment: Cell cycle assay (PI, flow cytometry); type: cell-based, human; details: 24 h; for Cell cycle distribution, S phase: negative control 20.8%; for Cell cycle distribution, G2/M phase: negative control 23.6%; for Cell cycle distribution, G0/G1 phase: negative control 50.6%
Procedure: To analyze the effect of compound 8q on cell cycle, the cycle of PC-3 cells was detected after being treated with compound 8q for 24 h (Figure 5). […] In addition, Cyclin D1, a cell cycle-related protein, is a key regulator of cycle progression, mainly regulating G1/S phase transition. […] In summary, compound 8q can arrest cells in the G0/G1 phase. […]
2.5. Cell cycle arrest of compound 8q on PC-3
To determine the effect of compound 8q on the cell cycle distribution of PC-3 cell, we used our previous method with slight modifications2. Briefly, cells were incubated in a six-well plate with a density of 3 × 105 at 37 ℃ and 5% CO2 for 24 h, followed by the addition of different concentrations of compound 8q for further incubation for 24 h.
Next, the cells were collected and washed twice with PBS. 75% anhydrous ethanol was used to immobilize the cells under overnight conditions at 4 ℃. Subsequently, PBS washed cells, and RNase from the cell cycle assay kit (Solarbio, Beijing, China) was added and incubated in a constant temperature (37 ℃) water bath for 30 min. Then PI was added under dark conditions and incubated at 4 ℃ for another half hour to detect.
as §1

[3] = test system: PC-3 cells; experiment: Colony formation assay; type: cell-based, human; details: Figure 3A

COc1cc(-c2nc(-c3nnc(SCC(=O)Nc4ccc(CN5CCOCC5)cc4)o3)cc3c2[nH]c2ccccc23)cc(OC)c1OC [Compound 8q, N-(4-(morpholinomethyl)phenyl)-2-((5-(1-(3,4,5-trimethoxyphenyl)-9H-pyrido[3,4-b]indol-3-yl)-1,3,4-oxadiazol-2-yl)thio)acetamide]
melting point: 181.8 to 182.7 °C | ROS mean fluorescence intensity (MFI) value [1]: 138 | Cell cycle distribution, S phase ([2]; 10 μM): 14.2% | Cell cycle distribution, G2/M phase ([2]; 10 μM): 20.8% | Cell cycle distribution, G0/G1 phase ([2]; 10 μM): 55.66% and 58.5% | Cell cycle distribution, S phase ([2]; 20 μM): 13.0% | Cell cycle distribution, G2/M phase ([2]; 20 μM): 18.4% | Cell cycle distribution, G0/G1 phase ([2]; 20 μM): 60.83% and 63.0% | Cell cycle distribution, S phase ([2]; 30 μM): 9.01% | Cell cycle distribution, G2/M phase ([2]; 30 μM): 20.5% | Cell cycle distribution, G0/G1 phase ([2]; 30 μM): 62.03% and 64.9% | Inhibition of colony formation (proliferation) of PC-3 cells [3]: concentration-dependent manner

From paper PMC11547513, “Design, Synthesis and Biological Activity Evaluation of β-Carboline Derivatives Containing Nitrogen Heterocycles” (Molecules, 2024)
